Source: PubChem BioAssay (NCI)
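Following 48 hours of exposure in 96-well plates, responses at five concentrations were used to interpolate endpoints linearly. TGI: total growth inhibition.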

Assays:
Assay in all cases: growth of human tumour cells (NCI), 48 h
786-0 renal = system: 786-0 renal
A549 NSCLC = system: A549 NSCLC
ACHN renal = system: ACHN renal
BT-549 breast = system: BT-549 breast
CAKI-1 renal = system: CAKI-1 renal
CCRF-CEM leukemia = system: CCRF-CEM leukemia
COLO 205 colon = system: COLO 205 colon
DU-145 prostate = system: DU-145 prostate
EKVX NSCLC = system: EKVX NSCLC
HCC-2998 colon = system: HCC-2998 colon
HCT-116 colon = system: HCT-116 colon
HCT-15 colon = system: HCT-15 colon
HL-60(TB) leukemia = system: HL-60(TB) leukemia
HOP-62 NSCLC = system: HOP-62 NSCLC
HOP-92 NSCLC = system: HOP-92 NSCLC
HS 578T breast = system: HS 578T breast
HT29 colon = system: HT29 colon
IGROV1 ovarian = system: IGROV1 ovarian
K-562 leukemia = system: K-562 leukemia
KM12 colon = system: KM12 colon
LOX IMVI melanoma = system: LOX IMVI melanoma
M14 melanoma = system: M14 melanoma
MALME-3M melanoma = system: MALME-3M melanoma
MCF7 breast = system: MCF7 breast
MDA-MB-231 breast = system: MDA-MB-231 breast
MDA-MB-435 = system: MDA-MB-435
MDA-N = system: MDA-N
MOLT-4 leukemia = system: MOLT-4 leukemia
NCI-H226 lung = system: NCI-H226 lung
NCI-H23 lung = system: NCI-H23 lung
NCI-H460 lung = system: NCI-H460 lung
NCI-H522 lung = system: NCI-H522 lung
NCI/ADR-RES ovarian = system: NCI/ADR-RES ovarian
OVCAR-3 ovarian = system: OVCAR-3 ovarian
OVCAR-4 ovarian = system: OVCAR-4 ovarian
OVCAR-5 ovarian = system: OVCAR-5 ovarian
OVCAR-8 ovarian = system: OVCAR-8 ovarian
PC-3 prostate = system: PC-3 prostate
RPMI-8226 leukemia = system: RPMI-8226 leukemia
RXF 393 renal = system: RXF 393 renal
SF-268 CNS = system: SF-268 CNS
SF-295 CNS = system: SF-295 CNS
SF-539 CNS = system: SF-539 CNS
SK-MEL-2 melanoma = system: SK-MEL-2 melanoma
SK-MEL-28 melanoma = system: SK-MEL-28 melanoma
SK-MEL-5 melanoma = system: SK-MEL-5 melanoma
SK-OV-3 ovarian = system: SK-OV-3 ovarian
SN12C renal = system: SN12C renal
SNB-19 CNS = system: SNB-19 CNS
SNB-75 CNS = system: SNB-75 CNS
SR leukemia = system: SR leukemia
SW-620 colon = system: SW-620 colon
T-47D breast = system: T-47D breast
TK-10 renal = system: TK-10 renal
U251 CNS = system: U251 CNS
UACC-257 melanoma = system: UACC-257 melanoma
UACC-62 melanoma = system: UACC-62 melanoma
UO-31 renal = system: UO-31 renal

Clc1ccc(OCC2NC3CCC2CC3)cn1 (stereo not drawn)
TGI (786-0 renal): 36.7 µM
TGI (A549 NSCLC): > 100 µM
TGI (ACHN renal): > 100 µM
TGI (BT-549 breast): > 100 µM
TGI (CAKI-1 renal): > 100 µM
TGI (CCRF-CEM leukemia): 77 µM
TGI (COLO 205 colon): 32.4 µM
TGI (DU-145 prostate): > 100 µM
TGI (EKVX NSCLC): 60.6 µM
TGI (HCC-2998 colon): 32.5 µM
TGI (HCT-116 colon): 35.9 µM
TGI (HCT-15 colon): 45.5 µM
TGI (HL-60(TB) leukemia): 51.9 µM
TGI (HOP-62 NSCLC): 67.1 µM
TGI (HOP-92 NSCLC): > 100 µM
TGI (HS 578T breast): > 100 µM
TGI (HT29 colon): 33.3 µM
TGI (IGROV1 ovarian): > 100 µM
TGI (K-562 leukemia): 41.4 µM
TGI (KM12 colon): 35.3 µM
TGI (LOX IMVI melanoma): 33.4 µM
TGI (M14 melanoma): 36.5 µM
TGI (MALME-3M melanoma): 39.6 µM
TGI (MCF7 breast): 34.8 µM
TGI (MDA-MB-231 breast): 47.8 µM
TGI (MDA-MB-435): 43.4 µM
TGI (MDA-N): 33.5 µM
TGI (MOLT-4 leukemia): 47.5 µM
TGI (NCI-H226 lung): > 100 µM
TGI (NCI-H23 lung): > 100 µM
TGI (NCI-H460 lung): 55.1 µM
TGI (NCI-H522 lung): 40.1 µM
TGI (NCI/ADR-RES ovarian): > 100 µM
TGI (OVCAR-3 ovarian): > 100 µM
TGI (OVCAR-4 ovarian): > 100 µM
TGI (OVCAR-5 ovarian): > 100 µM
TGI (OVCAR-8 ovarian): > 100 µM
TGI (PC-3 prostate): 78.3 µM
TGI (RPMI-8226 leukemia): 32.5 µM
TGI (RXF 393 renal): > 100 µM
TGI (SF-268 CNS): > 100 µM
TGI (SF-295 CNS): 68.8 µM
TGI (SF-539 CNS): 38.5 µM
TGI (SK-MEL-2 melanoma): 33.4 µM
TGI (SK-MEL-28 melanoma): > 100 µM
TGI (SK-MEL-5 melanoma): 31.8 µM
TGI (SK-OV-3 ovarian): > 100 µM
TGI (SN12C renal): 96.6 µM
TGI (SNB-19 CNS): 77.1 µM
TGI (SNB-75 CNS): > 100 µM
TGI (SR leukemia): 44.6 µM
TGI (SW-620 colon): 57.1 µM
TGI (T-47D breast): > 100 µM
TGI (TK-10 renal): > 100 µM
TGI (U251 CNS): 30.7 µM
TGI (UACC-257 melanoma): 36 µM
TGI (UACC-62 melanoma): 39.3 µM
TGI (UO-31 renal): 6.06 µM
